Where two headings read alike, the source gives them in different places.
Tests used:
human EP2 receptor = biological target: T1, human EP2 receptor (Homo sapiens, UniProt P43116); experiment: [3H]-PGE2 receptor binding assay, EP2 membranes
T1 construct: host or cells: HEK293, transient; membrane preparation
Experimental: (§1) Receptor binding assays were done using membrane preparations of HEK 293 cells transfected with various prostanoid receptors using previously published procedure (Nakao et al. 2007). EP1 and EP4 membranes were prepared from recombinant HEK293 cells stably expressing human EPl receptor (GenBank Accession # AY275470, Clone ID PER0100000, UMR cDNA Resource Center, Rolla, MO) or human EP4 receptor. EP2 and EP3 membranes were prepared from HEK293 cells transiently transfected with human EP2 receptor (GenBank Accession # AY275471, Clone ID PER0200000, UMR cDNA Resource Center, Rolla, MO) or human EP3 receptor (GenBank Accession # AY429108, Clone ID PER3VI0000, UMR cDNA Resource Center, Rolla, MO) plasmids. Frozen cell pellets were homogenized in homogenization buffer (10 mmol/L Tris‐HCl, pH7.4, 250 mmol/L sucrose, 1 mmol/L EDTA, 0.3 mmol/L indomethacin and protease inhibitor cocktail with EDTA (Roche Molecular Biochemicals, catalog # 1691498)) using a Teflon/glass homogenizer. After a low speed centrifugation (200g for 15 min at 4°C) the supernatant was subjected to high speed centrifugation (30,000g for 60 min at 4°C). Membrane protein preparation was aliquoted and quick frozen on dry ice prior to storage at −80°C. […] Compounds were tested in a 96‐well format using a three‐fold dilution series to generate 10‐point curves. […] The binding reaction was performed in 200 μL MES buffer (10 mmol/L MES, pH 6.0, 10 mmol/L MgCl2, and l mmol/L EDTA) using polystyrene 96‐well plates. […] The membranes were harvested by filtration (TomTek harvester), washed four times with cold buffer (10 mmol/L MES, pH 6.0, 10 mmol/L MgCl2), dried in a 60°C oven, and the radioactivity was quantified as counts per min (CPM) using a TopCount detector. […] Data were analyzed using a 4‐parameter nonlinear logistic equation. K i Conversion from IC50 Values (K i = […] where [L] is the ligand concentration). Results are expressed as the geometric mean ± standard deviation or geometric mean ± standard error as noted.

Rat EP4 = biological target: T2, Rat EP4 (Rattus norvegicus, UniProt P43114); experiment: EP4 cAMP antagonist assay (HTRF), rat EP4; assay type: cell-based; conditions: read-out: cAMP Antagonism Rat EP4 IC50
T2 construct: expressed in transfected cells
T2 sequence (P43114 whole entry): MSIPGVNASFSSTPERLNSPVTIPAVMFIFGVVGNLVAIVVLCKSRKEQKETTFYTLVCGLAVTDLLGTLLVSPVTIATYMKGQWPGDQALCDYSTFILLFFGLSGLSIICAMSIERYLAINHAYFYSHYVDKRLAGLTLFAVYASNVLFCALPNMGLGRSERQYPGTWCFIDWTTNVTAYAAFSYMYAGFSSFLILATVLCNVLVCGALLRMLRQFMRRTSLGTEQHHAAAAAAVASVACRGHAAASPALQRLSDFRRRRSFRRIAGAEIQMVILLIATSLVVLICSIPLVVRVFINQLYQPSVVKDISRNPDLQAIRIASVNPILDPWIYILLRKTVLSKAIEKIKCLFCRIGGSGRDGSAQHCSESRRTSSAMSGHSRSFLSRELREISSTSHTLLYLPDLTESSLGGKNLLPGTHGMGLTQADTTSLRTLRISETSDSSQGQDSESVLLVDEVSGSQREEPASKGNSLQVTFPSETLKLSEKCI
Experimental: (§2) Human EP4 (GenBank Accession # AY429109, Clone ID PER0400000, UMR cDNA Resource Center, Rolla, MO) was stably expressed in HEK293 cells. Rat EP4 cDNA (GenBank Accession# NM_03276) was cloned into pcDNA 3.1 vector and stably transfected into HEK293 cells. The cell lines were maintained in DMEM (invitrogen) supplemented with 10% fetal bovine serum (FBS), 1 mmol/L sodium pyruvate, 10 mmol/L HEPES, 500 μg/mL geneticin and 2 mmol/L L‐glutamine. Confluent cultures were grown at 37°C in an atmosphere containing 5% CO2. Cells were harvested using 0.25% Trypsin‐ EDTA, suspended in freeze media at a density of 10^7cel1s/mL, and aliquots were stored in liquid nitrogen. Immediately prior to the assay, cells were thawed with DMEM and suspended in cAMP assay buffer (HBSS with 0.1% BSA, 20 mmol/L HEPES and 200 μmol/L IBMX).
(§3) CJ‐023,423 served as the positive control. To measure the cAMP levels, cAMP‐d2 conjugate and anti cAMP‐cryptate conjugate in lysis buffer were incubated with the treated cells at room temperature for 1 h. The HTRF signal was detected using an EnVision plate reader (Perkin‐Elmer, Inc., Waltham, MA, USA.) to calculate the ratio of fluorescence at 665 to 620 nm. The raw data were converted to cAMP (nmol/L) using a cAMP standard curve generated for each experiment. Data were analyzed using a 4‐parameter nonlinear logistic equation. Results are expressed as the geometric mean ± standard deviation or geometric mean ± standard error as noted.

Human EP4 [1] = biological target: T3, Human EP4 (Homo sapiens, UniProt P35408); experiment: EP4 cAMP antagonist assay (HTRF), human EP4; assay type: cell-based; conditions: read-out: cAMP Antagonism (hEP4) Human EP4 IC50
T3 sequence (P35408 whole entry): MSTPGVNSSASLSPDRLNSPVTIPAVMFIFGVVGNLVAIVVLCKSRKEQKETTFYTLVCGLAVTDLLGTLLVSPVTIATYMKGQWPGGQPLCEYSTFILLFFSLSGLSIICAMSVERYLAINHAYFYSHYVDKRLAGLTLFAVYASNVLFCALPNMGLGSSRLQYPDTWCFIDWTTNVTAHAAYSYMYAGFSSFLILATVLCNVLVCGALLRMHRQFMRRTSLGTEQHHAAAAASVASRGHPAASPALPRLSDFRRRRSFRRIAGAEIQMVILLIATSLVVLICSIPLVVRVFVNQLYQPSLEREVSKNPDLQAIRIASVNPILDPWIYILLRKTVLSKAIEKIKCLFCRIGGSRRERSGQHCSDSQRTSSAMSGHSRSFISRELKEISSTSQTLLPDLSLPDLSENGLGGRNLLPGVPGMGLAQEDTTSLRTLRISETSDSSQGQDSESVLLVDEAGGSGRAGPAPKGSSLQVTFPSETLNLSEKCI
Experimental: as §2, with “Cells were harvested using 0.25% Trypsin‐ EDTA, suspended in freeze media at a density of 10^7cel1s/mL, and aliquots were stored in liquid nitrogen.” left out
as §3, with “To” for “CJ‐023,423 served as the positive control. To”, “The HTRF signal was detected using an EnVision plate reader (Perkin‐Elmer, Inc., Waltham, MA, USA.) to calculate the ratio of fluorescence at 665 to 620 nm.” left out

Human EP4 [2] = biological target: T3, Human EP4; experiment: [3H]-PGE2 receptor binding assay, EP4 membranes; design: expressed in transfected cells; membrane preparation; conditions: HEK293 membranes, geometric mean ± SEM, read-out: hEP1-4 receptor binding EP4 Ki
Experimental: as §1

[3] = tested on: PGE2 Inhibited TNFα in human whole blood; experiment: Human whole blood assay (Reversal of PGE2 Inhibited TNFα); assay type: cell-based; conditions: for times more potent than reference EP4 antagonists (whole blood assay): PGE2 mediated TNF-α
Experimental: Blood was collected from normal volunteer donors into sodium heparin vacutainer tubes. Donors had not taken glucocorticoids within 2 weeks of the donation. […] The plates were incubated for 20–24 h at 37 °C, 5% CO2, in a humidified atmosphere. […] Plasma was removed from the cell layer and was transferred to v‐bottom polypropylene plates. […] The plates were read at A450‐A650 on a plate reader (Molecular Devices Versamax) using SOFTmaxPRO (v. 4.3.I) software. IC50s were calculated using Graphpad Prism (v. 4) nonlinear regression, sigmoidal dose response curve fitting. Results are expressed as the geometric mean ± SD.

[4] = HEK293 membranes, [3H]-PGE2, geometric mean ± SEM, read-out: hEP1-4 receptor binding EP2 Ki

T1 sequence (P43116 whole entry): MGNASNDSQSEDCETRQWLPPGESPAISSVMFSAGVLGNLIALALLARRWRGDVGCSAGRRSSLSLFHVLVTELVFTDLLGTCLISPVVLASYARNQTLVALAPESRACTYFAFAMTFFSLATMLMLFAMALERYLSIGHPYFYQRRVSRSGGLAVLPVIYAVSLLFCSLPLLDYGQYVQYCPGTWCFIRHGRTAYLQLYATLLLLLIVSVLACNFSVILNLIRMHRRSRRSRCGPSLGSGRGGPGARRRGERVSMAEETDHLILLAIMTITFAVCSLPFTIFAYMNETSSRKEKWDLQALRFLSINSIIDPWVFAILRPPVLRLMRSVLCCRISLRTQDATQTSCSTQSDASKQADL

| Ki (human EP2 receptor; [4]) | IC50 (Rat EP4) | IC50 (Human EP4 [1]; HEK293 cells stably expressing human EP4, PGE2 at EC80, geometric mean ± SEM) | Ki (Human EP4 [2]) | IC50 (Human EP4 [1]) | IC50 ([3]; read-out: Human whole blood (Reversal of PGE2 Inhibited TNFα) IC50, 10 μg/ml LPS + 10 nmol/L PGE2, 20–24 h, geometric mean ± SD) | SMILES | reversal of PGE2 suppression of LPS stimulated TNF‐α production ([3]; human whole blood, various concentrations (Fig. 5A)) | Ki (human EP2 receptor; read-out: Ki for EP2 receptor) | times more potent than reference EP4 antagonists (whole blood assay) ([3]; human whole blood) |
| --- | --- | --- | --- | --- | --- | --- | --- | --- | --- |
| > 18900 nM | 1 nM | 2.4 ± 1.4 nM | 2.07 ± 1.31 nM | – | – | Cc1ccc(-c2cccc(CO)c2)nc1C(=O)Nc1c(C)ccc(C(=O)O)c1C [Compound 3] | – | – | – |
| 931 ± 457 nM | 20.6 ± 1.8 nM | – | 12.6 ± 7.36 nM | 4.5 ± 1.85 nM | – | C[C@H](NC(=O)c1cc(Cl)ccc1Oc1ccc(F)cc1)c1ccc(C(=O)O)cc1 [CJ‐042,794, reference compound] | reversed | – | – |
| – | 12.3 nM | – | 58 ± 12 nM | ~6 nM | 123 ± 80 nM | Cc1ccc(N2CCC(O)CC2)nc1C(=O)Nc1c(C)cc(C(=O)O)cc1C [Compound 1] | – | – | 5–10 times |

| SMILES | Ki (human EP2 receptor; [4]) | IC50 (Rat EP4) | IC50 (Human EP4 [1]; HEK293 cells stably expressing human EP4, PGE2 at EC80, geometric mean ± SEM) | Ki (Human EP4 [2]) | IC50 (Human EP4 [1]) | IC50 ([3]; read-out: Human whole blood (Reversal of PGE2 Inhibited TNFα) IC50, 10 μg/ml LPS + 10 nmol/L PGE2, 20–24 h, geometric mean ± SD) | reversal of PGE2 suppression of LPS stimulated TNF‐α production ([3]; human whole blood, various concentrations (Fig. 5A)) | Ki (human EP2 receptor; read-out: Ki for EP2 receptor) | times more potent than reference EP4 antagonists (whole blood assay) ([3]; human whole blood) |
| --- | --- | --- | --- | --- | --- | --- | --- | --- | --- |
| C[C@H](NC(=O)[C@H]1CCCCN1CCOc1ccccc1)c1ccc(C(=O)O)cc1 [Compound 2] | 1210 ± 509 nM | 15.4 nM | – | – | – | – | – | 1200 nM | 5–10 times |
